Data from patent US11970583B2, “Therapeutic dendrimer” (Starpharma Pty Ltd., priority 2018, dated 2024).
Entries after “also recorded” stand apart in the source; their conditions may differ. Where two headings read alike, the source gives them in different places.

How the values were obtained:
[1] = test system: CAPAN-1 tumour xenografts; test: CAPAN-1 mouse xenograft pancreatic cancer model study; type: in vivo, Female NOD-SCID Interleukin-2 receptor gamma chain null mice; conditions: for Tumour Growth inhibition (%): Day 37, Gemcitabine 80 mg/kg i.p., ABRAXANE 40 mg/kg i.v., SPL9048 […] i.v.; for Tumour Growth inhibition (%) / anti-tumour efficacy (mean tumour volume, FIG. 7): dosing days 1, 8, 15; for anti-tumour efficacy (mean tumour volume, FIG. 7): study to day 107
Method: Gemcitabine and ABRAXANE® were obtained from the Peter MacCallum Cancer Centre pharmacy, and were dissolved in saline solution immediately prior to dosing.
Female NOD-SCID Interleukin-2 receptor gamma chain null mice (aged 9 weeks) were inoculated subcutaneously on the flank with 5×10^6 CAPAN-1 cells in PBS:Matrigel (1:1).
Tumour growth data was analysed in GraphPad Prism for ANOVA followed by Dunnett's post ad-hoc test.

DU145 tumour xenografts = test: DU145 mouse xenograft prostate cancer model study; type: in vivo, Male SCID mice
Method: Cabazitaxel was prepared fresh for each dosing day. […] Dosing solutions at 4.5 and 5.5 mg/mL were prepared from this working stock immediately prior to injection.
Male SCID mice (age 7-8) weeks were inoculated subcutaneously in the flank with 3×10^6 DU145 cells in PBS:Matrigel (1:1). Mice were weighed and tumours measured 2-3 times weekly using electronic callipers. […] Treatment groups were saline, Cabazitaxel (9 and 11 mg/kg), SPL-9048 (9 mg/kg) and SPL-9005 (25 mg/kg). […] The experiment was ended on Day 126, or earlier if an ethical endpoint was met. Survival curves were analysed using the Mantel Cox log rank test.
Tumour volumes were determined 2-3 times weekly and are expressed as mean tumour volume (±SEM).
Graphs are shown for each group until fewer than 6 animals remained in each group.

[2] = Separate tolerability study in female SCID mice; type: in vivo; conditions: 25 mg/kg Cabazitaxel equivalent
[3] = Single-dose toxicokinetic study, intravenous bolus, free (unconjugated) cabazitaxel in plasma; type: in vivo, Sprague Dawley Crl:CD (SD) rats; conditions: for Cmax free (unconjugated) Cabazitaxel: i.v. bolus; for % JEVTANA ® brand cabazitaxel dose: relative to JEVTANA 2.5 mg/kg
Method: A single-dose toxicokinetic study of SPL-9048 and SPL-9005 was carried out by intravenous bolus injection in rats with a 21-day observation period. The control, 0.9% sodium chloride, was prepared and dispensed on the day of dosing. SPL-9048 and SPL-9005 were prepared at appropriate concentrations to meet dose level requirements. The dosing formulations were prepared and dispensed on each day of dosing and were used within 3 hours of preparation. The required amount of test article was weighed out and dissolved in a suitable volume of normal saline with gentle swirling and the pH was recorded. Cabazitaxel (JEVTANA® brand cabazitaxel) was prepared at appropriate concentration to meet dose level requirements. […] This stock solution was further diluted with normal saline to produce the final dosing concentration within 30 minutes.
The animals used were male and female Sprague Dawley Crl:CD (SD) rats. The animals were 10 to 14 weeks old and weighed between 327 and 565 g for males and 212 and 316 g for females at initiation of dosing. Animals were acclimated to their designated housing for at least 4 days before the first day of dosing. Animals were assigned to groups by a stratified randomization scheme designed to achieve similar group mean body weights. Males and females were randomised separately. Animals in poor health or at extremes of body weight ranges were not assigned to groups. PMI Nutrition International Certified Rodent Chow No. 5CR4 was provided ad libitum throughout the study except during designated procedures. The same diet in meal form was also provided, as needed. Municipal tap water, after treatment by reverse osmosis and ultraviolet irradiation, was freely available to each animal via an automatic watering system, except during designated procedures. Water bottles were also provided, as required. Animal were socially housed for psychological/environmental enrichment and were provided with items such as a chewing object, except when interrupted by study procedures/activities. Veterinary care was available throughout the course of the study.
The test and control articles were administered to the appropriate animals at the amounts indicated in the table below via a single intravenous (slow bolus) injection to the tail vein.
The dose volume for each animal was based on the most recent body weight measurement. The animals were temporarily restrained for dose administration and were not sedated. The doses were given using a syringe with attached needle. The first day of dosing for each group was designated as Day 1. The comparator dosing formulation (JEVTANA® brand Cabazitaxel) and test articles were maintained between 15 and 30° C. during dosing.
Toxicokinetic parameters were estimated using Phoenix pharmacokinetic software. A non-compartmental approach consistent with the intravenous route of administration was used for parameter estimation.

[4] = test system: MDA-MB-231 tumour xenografts
Method: Cabazitaxel was prepared fresh for each dosing day.
Tumour volumes were determined twice weekly and were expressed as mean tumour volume (±SEM).
The data represent the mean percent weight change from baseline (Day 1) for each group; bars SEM.

[5] = Toxicology study in rats at 1 mg/kg (neutropenia); type: in vivo; conditions: for neutropenia (FIG. 6), day 7 in particular: male and female rats
Source text: References to amounts dosed in mg/kg for the dendrimeric compound are to the amounts of Cabazitaxel that may theoretically be released by the dendrimer.

[6] = Stability in solution (precipitation); type: physicochemical; conditions: compared with SPL9049
[7] = test system: progressive metastatic disease; test: Phase 1 dose escalation study: treatment response and biomarkers; type: in vivo, human patients
Method: Biomarker, PK and other data were collected from patients enrolled in the study. Patients were dosed every 3 weeks, over 1 hour using an infusion pump. Patients all had progressive metastatic disease. The patient population was heavily pre-treated with a range of chemotherapeutic agents as described in the below table.

[8] = 2.5 mg/kg
[9] = cited from earlier work
[10] = cited from earlier work; remark: listed apart in the source

Compound: Nc1ccn([C@@H]2O[C@H](CO)[C@@H](O)C2(F)F)c(=O)n1 [Gemcitabine, reference compound]
- Tumour Growth inhibition (%) [1]: 40%
- anti-tumour efficacy (mean tumour volume, FIG. 7) [1]: Neither Gemcitabine or ABRAXANE® were effective in this model

Compound: BHALys[Lys]32[α-TDA-Cabazitaxel]32 †[ε-PEG˜2100]32‡ [SPL9005]
- male mice recovered to +5/10% starting weight (DU145 tumour xenografts; 25 mg/kg, after day 40): 2/10
- male mice with >20% weight loss (DU145 tumour xenografts; 25 mg/kg, after third dose, approx. day 25): 8/10
- mean weight loss [2]: below 10%
- AUC0-t free Cabazitaxel ([3]; 1 mg/kg drug eq., males): 202.94 ng·h/mL
- Cmax free (unconjugated) Cabazitaxel ([3]; 1 mg/kg drug eq., males): 4.41 ng/mL
- % JEVTANA ® brand cabazitaxel dose ([3]; 1 mg/kg drug eq., males): 30%
- AUC0-t free Cabazitaxel ([3]; 2.5 mg/kg drug eq., males): 548.96 ng·h/mL
- Cmax free (unconjugated) Cabazitaxel ([3]; 2.5 mg/kg drug eq., males): 9.29 ng/mL
- % JEVTANA ® brand cabazitaxel dose ([3]; 2.5 mg/kg drug eq., males): 81%

Compound: BHALys[Lys]32[α-DGA-Cabazitaxel]32†[ε-PEG˜2100]32‡ [SPL9048]
- antitumour efficacy (mean tumour volume, FIG. 1) (DU145 tumour xenografts; 9 mg/kg i.v. Days 1, 8 and 15, to Day 126): complete tumour regression with no regrowth observed in any of the animals on Day 126
- tolerability (body weight, FIG. 2) (DU145 tumour xenografts; male mice, 9 mg/kg i.v. Days 1, 8, 15, 9 mg/kg): overall well tolerated; also recorded: better tolerated than SPL9005
- max weight loss (DU145 tumour xenografts; male mice, 9 mg/kg, on Day 20): −10%
- tolerability (body weight, FIG. 4) ([4]; 9 and 10 mg/kg): overall well tolerated
- antitumour efficacy (mean tumour volume, FIG. 3) ([4]; 9 and 10 mg/kg i.v. days 1, 8 and 15): complete tumour regression
- survival ([4]; both doses (9 and 10 mg/kg)): significantly extended survival beyond that of Cabazitaxel
- AUC0-t free Cabazitaxel ([3]; 1 mg/kg drug eq., males): 445.00 ng·h/mL
- Cmax free (unconjugated) Cabazitaxel ([3]; 1 mg/kg drug eq., males): 14.13 ng/mL
- % JEVTANA ® brand cabazitaxel dose ([3]; 1 mg/kg drug eq., males): 65%
- AUC0-t free Cabazitaxel ([3]; 2.5 mg/kg drug eq., males): 1239.99 ng·h/mL
- Cmax free (unconjugated) Cabazitaxel ([3]; 2.5 mg/kg drug eq., males): 36.89 ng/mL
- % JEVTANA ® brand cabazitaxel dose ([3]; 2.5 mg/kg drug eq., males): 182%
- rebound after neutropenia at day 14 [5]: virtually no rebound
- neutropenia (FIG. 6), day 7 in particular [5]: lesser/no dip in values
- stability in solution (e.g. with regard to precipitation) [6]: increased stability in solution
- Tumour Growth inhibition (%) [1]: 107%
- tumour growth inhibition compared with ABRAXANE ([1]; […] i.v. vs 40 mg/kg i.v.): more effectively than ABRAXANE®
- anti-tumour efficacy (mean tumour volume, FIG. 7) [1]: complete regression of CAPAN-1 tumours for the duration of the study
- dose at which biomarker response occurs ([7]; FIGS. 8 and 9): ≥ 10 mg/m^2
- CA-125 (FIG. 9) ([7]; ovarian cancer, after two doses at 15 mg/m^2): declining
- Stable disease ([7]; patient: digital papillary adenocarcinoma (stage IV), 2 to 15 mg/m^2, 12 cycles): Stable disease > 33 weeks.
- CA-125 decline ([7]; patient: ovarian (stage IV), 15 to 20 mg/m^2, 7 cycles, over 15 weeks): CA-125 declining (60%) from 652
- CA-125 after decline ([7]; patient: ovarian (stage IV), from 652, over 15 weeks, after one cycle at 15 mg/m^2): to 255 kU/L (over 15 weeks) after
- CA 19-9 decline ([7]; patient: pancreatic adenocarcinoma (stage IV), 20 mg/m^2, 3 cycles, after one cycle): CA 19-9 declining (28%) from 177
- CA 19-9 after decline ([7]; patient: pancreatic adenocarcinoma (stage IV), 20 mg/m^2, from 177 baseline, after one cycle): baseline to 127 kU/L after one
- CA 19-9 ([7]; patient: pancreatic adenocarcinoma, 20 mg/m^2, 1 cycle): Stable CA 19-9, abdominal pain
- abdominal pain and opioid treatment ([7]; patient: pancreatic adenocarcinoma, 20 mg/m^2, after one cycle): subsided and cessation of opioid
- Stable disease ([7]; patient: prostate (stage III), 5 to 20 mg/m^2, 13 cycles): Stable disease > 35 weeks.
- PSA after decline ([7]; patient: prostate (stage III), 5 to 20 mg/m^2, declined from 106 over 12 weeks): PSA declined from 106 to 25 μg/L
- Stable disease ([7]; patient: prostate, 20 mg/m^2, 5 cycles): Stable disease > 6 weeks
- PSA after decline ([7]; patient: prostate, 20 mg/m^2, 5 cycles, from 262, in 3 weeks after three cycles): 86 μg/L (in 3 weeks) after three
- PSA stability ([7]; patient: prostate, 5 cycles, at 5 mg/m^2): Preliminary signs of PSA stability
- PSA (FIG. 8) ([7]; prostate cancer patients, multiple doses at 10 mg/m^2, continuing at 20 mg/m^2): declining
- toxicity overall [8]: Reduced toxicity

Compound: CO[C@H]1C(=O)[C@]2(C)[C@@H](OC)C[C@H]3OC[C@@]3(OC(C)=O)[C@H]2[C@H](OC(=O)c2ccccc2)[C@]2(O)C[C@H](OC(=O)[C@H](O)[C@@H](NC(=O)OC(C)(C)C)c3ccccc3)C(C)=C1C2(C)C [Cabazitaxel]
- tumours reaching ethical tumour volume endpoint by day 98 ([4]; 9 mg/kg i.v. days 1, 8, 15): 9 of 10
- Cabazitaxel measurability in plasma over time ([3]; 2.5 mg/kg): not measurable more than 24 hours after
- AUC0-t free Cabazitaxel ([3]; 2.5 mg/kg drug eq., males): 679.99 ng·h/mL
- Cmax free (unconjugated) Cabazitaxel ([3]; 2.5 mg/kg drug eq., males): 801.05 ng/mL
- % JEVTANA ® brand cabazitaxel dose ([3]; 2.5 mg/kg drug eq., males): 100%
- Cmax ([3]; Sprague Dawley Crl:CD (SD), rat, plasma, intravenous, 2.5 mg/kg): 801 ng/mL
- Tmax ([3]; male, Sprague Dawley Crl:CD (SD), rat, plasma, intravenous, 2.5 mg/kg, males): 2 min
- rebound after neutropenia at day 14 [5]: substantial rebound at day 14
- neutropenia (FIG. 6), day 7 in particular [5]: dip in values
- patients with febrile neutropenia ([9]; 25-mg/m2 dose): 4%
- patients with prolonged grade 4 neutropenia ([9]; 25-mg/m2 dose): 4%
- AUC concentration ([9]; 25-mg/m^2 dose): 642±320 mcg/L per hour
- Cmax ([9]; 25-mg/m^2 dose): 535 ± 305 ng/mL
- dose eliminated within 2 weeks ([9]; in vivo): Approximately 80%
- patients with diarrhea ([9]; in vivo): 56%
- patients with fatigue ([9]; in vivo): 36%
- patients with grade 1 hypersensitivity reactions (flushing, dizziness, chest tightness) ([9]; in vivo): 8%
- patients with nausea ([9]; in vivo): 40%
- patients with neurotoxicity ([9]; in vivo): 36%
- patients with vomiting ([9]; in vivo): 16%
- intermediate elimination phase, average t½ ([9]; triphasic model, plasma): 78 ± 36 min
- prolonged terminal elimination phase, average t½ ([9]; triphasic model, plasma): 77.3 ± 45.5 h
- rapid initial elimination phase, average terminal half-life t½ ([9]; triphasic model, plasma): 2.6 ± 1.4 min
- test article related hematology changes ([8]; by Day 2 through Day 7, males and females): generally greater
- mean Cmax ([10]; 25 mg/m2, 1-hour IV, n=67): 226 ng/mL
- Tmax (end of infusion) ([10]; 25 mg/m2, 1-hour IV): 60 min
- mean AUC ([10]; 25 mg/m2, 1-hour IV): 991 ng·h/mL
- patients with Grade 3 or 4 febrile neutropenia ([10]; in vivo): 8%
- patients with neutropenia (all grades) ([10]; in vivo): 94%
